Measurements from PubChem BioAssay AID306 (DTP/NCI, 2004).
Values joined by “and” are separate entries in the source; they are usually repeats but may differ in a detail not shown here. Equal entries are not always repeated. Inconclusive results and toxic doses are left out.

Tested on: BDF1 mice, L1210 Methyl-GAG-resistant leukemia, survival T/C
Assay: NCI In Vivo Anticancer Drug Screen. Data for tumor model L1210 Leukemia resistant to Methyl-GAG; NSC 32946 (subcutaneous) in B6D2F1 (BDF1) mice
Settings: endpoint: mean survival time, higher = longer survival
Description: The antitumor activity of compounds was measured in mice bearing transplantable tumors. Survival or tumor size were measured and the results are expressed as the measurement made in the treated group (T) divided by the measurement made in the vehicle treated control group (C). The tumor model used in this assay is L1210 Leukemia resistant to Methyl-GAG; NSC 32946 (subcutaneous) in B6D2F1 (BDF1) mice

[1] = dose: 0.5 mg/kg/injection, schedule: Q01DX Z (ip), vehicle: saline
[2] = dose: 12.5 mg/kg/injection, schedule: Q01DX Z (ip), vehicle: saline
[3] = dose: 25.0 mg/kg/injection, schedule: Q01DX Z (ip), vehicle: saline
[4] = dose: 100.0 mg/kg/injection, schedule: Q01DX Z (ip), vehicle: saline
[5] = dose: 16.0 mg/kg/injection, schedule: Q01DX Z (sc), vehicle: steriod suspending solution
[6] = dose: 32.0 mg/kg/injection, schedule: Q01DX Z (sc), vehicle: steriod suspending solution
[7] = dose: 62.5 mg/kg/injection, schedule: Q01DX Z (sc), vehicle: steriod suspending solution
[8] = dose: 125.0 mg/kg/injection, schedule: Q01DX Z (sc), vehicle: steriod suspending solution
[9] = dose: 62.5 mg/kg/injection, schedule: Q01DX Z (ip), vehicle: carboxymethylcellulose (CMC)
[10] = dose: 125.0 mg/kg/injection, schedule: Q01DX Z (ip), vehicle: carboxymethylcellulose (CMC)

## O=C(Nc1ccc(NC2=NCCN2)cc1)c1ccc(C(=O)Nc2ccc(NC3=NCCN3)cc2)cc1
[1]
  T/C: 101 % of control
dose: 1.0 mg/kg/injection, schedule: Q01DX Z (ip), vehicle: saline
  T/C: 100 % of control
dose: 2.0 mg/kg/injection, schedule: Q01DX Z (ip), vehicle: saline
  T/C: 100 % of control
dose: 8.0 mg/kg/injection, schedule: Q01DX Z (ip), vehicle: saline
  T/C: 196 % of control
dose: 32.0 mg/kg/injection, schedule: Q01DX Z (ip), vehicle: saline
  T/C: 113 % of control
dose: 64.0 mg/kg/injection, schedule: Q01DX Z (ip), vehicle: saline
  T/C: 95 % of control

## Cn1cc(NC(=O)c2cc(NC(=O)CN=C(N)N)cn2C)cc1C(=O)NCCC(=N)N
dose: 6.3 mg/kg/injection, schedule: Q01DX Z (ip), vehicle: saline
  T/C: 112 % of control
[2]
  T/C: 102 % of control
[3]
  T/C: 91 % of control

## CS(=O)(=O)OCCCCOS(C)(=O)=O
dose: 0.4 mg/kg/injection, schedule: Q01DX Z (ip), vehicle: methylcellulose (MC)
  T/C: 102 % of control
dose: 1.6 mg/kg/injection, schedule: Q01DX Z (ip), vehicle: methylcellulose (MC)
  T/C: 102 % of control
dose: 3.2 mg/kg/injection, schedule: Q01DX Z (ip), vehicle: methylcellulose (MC)
  T/C: 86 % of control
dose: 6.4 mg/kg/injection, schedule: Q01DX Z (ip), vehicle: methylcellulose (MC)
  T/C: 88 % of control and 102 % of control

## CC(=O)N(C)C
dose: 125.0 mg/kg/injection, schedule: Q01DX Z (ip), vehicle: saline
  T/C: 100 % of control
dose: 250.0 mg/kg/injection, schedule: Q01DX Z (ip), vehicle: saline
  T/C: 94 % of control
dose: 500.0 mg/kg/injection, schedule: Q01DX Z (ip), vehicle: saline
  T/C: 102 % of control
dose: 1000.0 mg/kg/injection, schedule: Q01DX Z (ip), vehicle: saline
  T/C: 109 % of control
dose: 2000.0 mg/kg/injection, schedule: Q01DX Z (ip), vehicle: saline
  T/C: 105 % of control
dose: 4000.0 mg/kg/injection, schedule: Q01DX Z (ip), vehicle: saline
  T/C: 154 % of control

## CCCCCCCCCCCCNCCCCCCCCCCCC
dose: 7.5 mg/kg/injection, schedule: Q01DX Z (ip), vehicle: carboxymethylcellulose (CMC)
  T/C: 94 % of control
dose: 15.0 mg/kg/injection, schedule: Q01DX Z (ip), vehicle: carboxymethylcellulose (CMC)
  T/C: 101 % of control
dose: 30.0 mg/kg/injection, schedule: Q01DX Z (ip), vehicle: carboxymethylcellulose (CMC)
  T/C: 103 % of control

## O=c1[nH]cc(F)c(=O)[nH]1
dose: 6.25 mg/kg/injection, schedule: Q01DX Z (ip), vehicle: saline
  T/C: 102 % of control
[4]
  T/C: 110 % of control

## COc1cc2c(c(OC)c1OC)-c1ccc(OC)c(=O)cc1[C@@H](NC(C)=O)CC2
dose: 0.12 mg/kg/injection, schedule: Q01DX Z (ip), vehicle: saline
  T/C: 95 % of control
dose: 0.25 mg/kg/injection, schedule: Q01DX Z (ip), vehicle: saline
  T/C: 96 % of control
[1]
  T/C: 101 % of control

## O=C1CCC(N2C(=O)c3ccccc3C2=O)C(=O)N1 (stereo unspecified)
dose: 18.75 mg/kg/injection, schedule: Q01DX Z (ip), vehicle: carboxymethylcellulose (CMC)
  T/C: 96 % of control
dose: 37.5 mg/kg/injection, schedule: Q01DX Z (ip), vehicle: carboxymethylcellulose (CMC)
  T/C: 102 % of control
dose: 75.0 mg/kg/injection, schedule: Q01DX Z (ip), vehicle: carboxymethylcellulose (CMC)
  T/C: 102 % of control
dose: 150.0 mg/kg/injection, schedule: Q01DX Z (ip), vehicle: carboxymethylcellulose (CMC)
  T/C: 94 % of control

## Nc1ncnc2[nH]ncc12
dose: 0.8 mg/kg/injection, schedule: Q01DX Z (ip), vehicle: carboxymethylcellulose (CMC)
  T/C: 102 % of control
dose: 1.6 mg/kg/injection, schedule: Q01DX Z (ip), vehicle: carboxymethylcellulose (CMC)
  T/C: 100 % of control
dose: 3.1 mg/kg/injection, schedule: Q01DX Z (ip), vehicle: carboxymethylcellulose (CMC)
  T/C: 104 % of control
dose: 6.25 mg/kg/injection, schedule: Q01DX Z (ip), vehicle: carboxymethylcellulose (CMC)
  T/C: 106 % of control
dose: 12.5 mg/kg/injection, schedule: Q01DX Z (ip), vehicle: carboxymethylcellulose (CMC)
  T/C: 102 % of control
dose: 25.0 mg/kg/injection, schedule: Q01DX Z (ip), vehicle: carboxymethylcellulose (CMC)
  T/C: 90 % of control
dose: 50.0 mg/kg/injection, schedule: Q01DX Z (ip), vehicle: carboxymethylcellulose (CMC)
  T/C: 93 % of control and 96 % of control

## CN(Cc1cnc2nc(N)nc(N)c2n1)c1ccc(C(=O)N[C@@H](CCC(=O)O)C(=O)O)cc1
dose: 0.31 mg/kg/injection, schedule: Q01DX Z (ip), vehicle: other
  T/C: 157 % of control and 164 % of control (2×)
dose: 0.43 mg/kg/injection, schedule: Q01DX Z (ip), vehicle: other
  T/C: 160 % of control
dose: 0.62 mg/kg/injection, schedule: Q01DX Z (ip), vehicle: other
  T/C: 235 % of control and 245 % of control and 246 % of control
dose: 0.87 mg/kg/injection, schedule: Q01DX Z (ip), vehicle: other
  T/C: 255 % of control
dose: 1.25 mg/kg/injection, schedule: Q01DX Z (ip), vehicle: other
  T/C: 262 % of control and 270 % of control and 276 % of control
dose: 1.5 mg/kg/injection, schedule: Q01DX Z (ip), vehicle: other
  T/C: 194 % of control
dose: 1.75 mg/kg/injection, schedule: Q01DX Z (ip), vehicle: other
  T/C: 301 % of control
dose: 2.5 mg/kg/injection, schedule: Q01DX Z (ip), vehicle: other
  T/C: 178 % of control
dose: 3.0 mg/kg/injection, schedule: Q01DX Z (ip), vehicle: other
  T/C: 234 % of control
dose: 3.5 mg/kg/injection, schedule: Q01DX Z (ip), vehicle: other
  T/C: 116 % of control
dose: 5.0 mg/kg/injection, schedule: Q01DX Z (ip), vehicle: other
  T/C: 95 % of control and 118 % of control

## CC[C@@H](c1ccc(O)cc1)[C@@H](CC)c1ccc(O)cc1
[5]
  T/C: 96 % of control
[6]
  T/C: 96 % of control
[7]
  T/C: 100 % of control
[8]
  T/C: 100 % of control
dose: 250.0 mg/kg/injection, schedule: Q01DX Z (sc), vehicle: steriod suspending solution
  T/C: 108 % of control
dose: 500.0 mg/kg/injection, schedule: Q01DX Z (sc), vehicle: steriod suspending solution
  T/C: 98 % of control and 101 % of control
dose: 1000.0 mg/kg/injection, schedule: Q01DX Z (sc), vehicle: steriod suspending solution
  T/C: 95 % of control

## N=C(N)c1ccc(Nc2ccc(C(=N)N)cc2)cc1
dose: 3.1 mg/kg/injection, schedule: Q01DX Z (ip), vehicle: methylcellulose (MC)
  T/C: 98 % of control and 102 % of control
dose: 6.25 mg/kg/injection, schedule: Q01DX Z (ip), vehicle: methylcellulose (MC)
  T/C: 107 % of control
dose: 6.3 mg/kg/injection, schedule: Q01DX Z (ip), vehicle: methylcellulose (MC)
  T/C: 93 % of control
dose: 12.5 mg/kg/injection, schedule: Q01DX Z (ip), vehicle: methylcellulose (MC)
  T/C: 97 % of control

## Clc1ncnc2nc[nH]c12
dose: 31.25 mg/kg/injection, schedule: Q01DX Z (ip), vehicle: carboxymethylcellulose (CMC)
  T/C: 100 % of control
[9]
  T/C: 90 % of control
[10]
  T/C: 121 % of control

## CCCCNc1ncnc2c1cnn2C
dose: 4.0 mg/kg/injection, schedule: Q01DX Z (ip), vehicle: carboxymethylcellulose (CMC)
  T/C: 106 % of control
dose: 8.0 mg/kg/injection, schedule: Q01DX Z (ip), vehicle: carboxymethylcellulose (CMC)
  T/C: 106 % of control
dose: 8.8 mg/kg/injection, schedule: Q01DX Z (ip), vehicle: carboxymethylcellulose (CMC)
  T/C: 102 % of control
dose: 15.6 mg/kg/injection, schedule: Q01DX Z (ip), vehicle: carboxymethylcellulose (CMC)
  T/C: 110 % of control
dose: 31.0 mg/kg/injection, schedule: Q01DX Z (ip), vehicle: carboxymethylcellulose (CMC)
  T/C: 112 % of control
dose: 31.2 mg/kg/injection, schedule: Q01DX Z (ip), vehicle: carboxymethylcellulose (CMC)
  T/C: 107 % of control
[9]
  T/C: 100 % of control
[10]
  T/C: 98 % of control

## CN(N=O)C(=O)NC(C=O)C(O)C(O)C(O)CO (stereo unspecified)
[2]
  T/C: 101 % of control
[3]
  T/C: 106 % of control and 113 % of control
dose: 50.0 mg/kg/injection, schedule: Q01DX Z (ip), vehicle: saline
  T/C: 105 % of control and 110 % of control
[4]
  T/C: 160 % of control
dose: 200.0 mg/kg/injection, schedule: Q01DX Z (ip), vehicle: saline
  T/C: 90 % of control

## C[C@]12CCC(=O)C=C1CC[C@@H]1[C@@H]2CC[C@@]2(C)[C@H]1CC[C@]2(C)O
[5]
  T/C: 97 % of control
[6]
  T/C: 105 % of control
[7]
  T/C: 89 % of control
dose: 63.0 mg/kg/injection, schedule: Q01DX Z (sc), vehicle: steriod suspending solution
  T/C: 97 % of control
[8]
  T/C: 95 % of control and 101 % of control
